Results published in patent US6200966A, “Compositions for inhibiting airway wall inflammation” (Amrad Operations Pty. Ltd., priority 1996, dated 2001).
“Also recorded” adds a separate entry of the source.

Tests used:
[1] = tested on: human cultured airway smooth muscle cells; experiment: Protein synthesis: [3H]-leucine incorporation; format: cell-based; settings: for [3H]-leucine incorporation: Table 5, unstimulated cells, mean
Protocol: (§1) Human bronchial airway smooth muscle was obtained from macroscopically normal lung resection specimens from lung transplant donors or recipients provided by the Alfred Hospital (Melbourne). Cultures were prepared as previously described in detail (Tomlinson et al., 1994). Briefly, the tissue was partially digested in Dulbecco's Modified Eagle's Medium (DMEM), [supplemented with 2 mM L-glutamine, 100 μg/ml streptomycin, 100 U/ml penicillin-G, 2 μg/ml amphotericin B, and 0.25% w/v bovine serum albumin (BSA)] containing 3 mg/ml collagenase for 30 minutes at 37° C. and approximately 0.5 g smooth muscle was further digested by a 2 hour incubation in 0.5 mg/ml elastase, followed by an 18 hour incubation in collagenase (3 mg/ml) at 37° C. Cell suspensions ere centrifuged (10 min, 100×g, 25° C.), washed three times in supplemented DMEM, resuspended in 25 ml DMEM containing 10% (v/v) heat-inactivated foetal calf serum (FCS), seeded into 25 cm^2 Falcon culture flasks and incubated (37° C., 5% CO2) for 7 to 10 days until monolayer confluence was reached. Cells were then harvested weekly by 10 min exposure to 0.5% trypsin, 1 mM EDTA and passaged at a 1:3 split ratio into 75 cm^2 Falcon culture flaskes. Cells at passage numbers 3 to 15 were used for experiments.
(§2) Cells were subcultured into 24-well plates at a 1:3 ratio and allowed to grow to monolayer confluency over a 72-96 hour period in an atmosphere of 5% CO2 in air at 37° C. The serum-containing medium was replaced with serum-free DMEM for a 24 hour period to produce growth arrest. In some experiments, the cells were pretreated with 2-methoxyestradiol 30 min before the addition of mitogen. The stimulant (mitogen) was added to the appropriate wells together with a supplement containing insulin, transferrin, and selenium (Monomed A, 1% v/v). Monomed A was added to provide progression factors which are essential for the mitogenic activity of growth factors such as thrombin, epidermal growth factor (EGF) and basic fibroblast growth factor (bFGF) (Stewart et al., 1995a). Mitogens and inhibitors were left in contact with cells from the time of addition until the end of the experiment, unless indicated otherwise. Cells were incubated for 24 hours (37° C., 5% CO2) before being pulsed with [^3 H]-thymidine (1 μCi/ml for four hours) to measure incorporation of radiolabel into newly synthesized DNA, according to out previous study (Stewart et al., 1995). Incorporation of radioactivity was determined by filtration at the end of the pulse-labelling period. The medium containing the radioactivity was aspirated and the cells were lysed by addition of 200 μl of 0.1M NaOH. The DNA was immobilised by filtration in a binding harvester (Packard Filtermate 196) on glass fibre filters (Packard, standard), which were then washed with 3×3 ml volumes of distilled water and a single 1 ml volume of 100% ethanol. The dried filters were counted in a Packard Topcount liquid scintillation counter. Protein synthesis rates were determined in experiments of analogous design to those described above, but [^3 H]-leucine replaced [^3 H]-thymidine in the pulsing incubation of 4 hours. Furthermore, in experiments to determine the effects of mitogens and 2-methoxyestradiol on the rate of protein synthesis, incubations with mitogen were carried out for a period of 48 hours. The longer duration of these experiments was required to allow sufficient time for cell division to occur.
(§3) Each treatment in an individual experiment was carried out in quadruplicate for DNA and protein synthesis experiments. Each experiment was performed in at least three different cultures obtained from three different individuals. For cell counting, single incubations were carried out in three cultures. Results are presented as grouped data from multiple cultures and are expressed as mean ±S. E. of n cultures. The degree of increment was calculated by dividing the response of treated wells by that of the control wells on the same 24-well plate.

[2] = tested on: human cultured airway smooth muscle cells; experiment: DNA synthesis: [3H]-thymidine incorporation; format: cell-based
Protocol: as §1, §2, §3

[3] = tested on: human cultured airway smooth muscle cells; experiment: Protein synthesis: [3H]-leucine incorporation; format: cell-based; settings: Table 5, unstimulated cells, mean
[4] = tested on: airway smooth muscle cells; experiment: Morphological changes (cell rounding); format: cell-based, human
[5] = tested on: cultured airway smooth muscle; settings: cited from earlier work; for mitogenic activity on airway smooth muscle: various species
[6] = tested on: endothelial cells and fibroblasts; settings: actively proliferating or non-quiescent; cited from earlier work

C[C@]12CC[C@@H]3c4cc(O)c(O)cc4CC[C@H]3[C@@H]1CC[C@@H]2O [2-hydroxyestradiol, 1,3,5[10]-estratriene-2,3,17β-triol]
[3H]-leucine incorporation ([1]; concentration 0.3): 107 % control | [3H]-leucine incorporation ([1]; concentration 1.0): 94 % control | [3H]-leucine incorporation ([1]; concentration 3.0): 56 % control | DNA synthesis in response to FCS (1%), 3 and 10 μM ([2]; FCS 1%): inhibited DNA synthesis | FCS (1%)-stimulated DNA synthesis, lower concentrations ([2]; FCS 1%): increased DNA synthesis | [3H]-leucine incorporation ([3]; concentration 10.0): 51 % control

COc1cc2c(cc1O)CC[C@@H]1[C@@H]2CC[C@]2(C)C(=O)CC[C@@H]12 [2-methoxyestrone]
concentration-response of enhancement of thrombin-stimulated DNA synthesis ([2]; thrombin): bell-shaped concentration-response curve | enhancement of thrombin-stimulated DNA synthesis, 10 μM ([2]; thrombin 0.3 U/ml, 10 μM): level of enhancement declined at 10 μM | thrombin-stimulated DNA synthesis (analogues) ([2]; thrombin 0.3 U/ml, up to 3 μM): enhanced thrombin-stimulated DNA synthesis

NCCc1c[nH]c2ccc(O)cc12 [5HT, Serotonin, reference compound]
incorporation of [3H]-leucine by serotonin ([1]; 5HT 10 nM): increased incorporation of [^3 H]-leucine | incorporation of [3H]-thymidine by serotonin ([2]; 5HT 0.1 nM up to 10 μM): no effect

C[C@]12CC[C@@H]3c4ccc(O)cc4CC[C@H]3[C@@H]1CC[C@@H]2O [17β-estradiol, 1,3,5[10]-estratriene-3, 17β-diol, reference compound]
[3H]-leucine incorporation ([1]; concentration 0.3): 103 % control | [3H]-leucine incorporation ([1]; concentration 3.0): 87 % control | FCS (1%)-stimulated DNA synthesis, 10 μM ([2]; FCS 1%, 10 μM): inhibition was observed at 10 μM | DNA synthesis in response to FCS (1%), 3 and 10 μM ([2]; FCS 1%): inhibited DNA synthesis | FCS (1%)-stimulated DNA synthesis, lower concentrations ([2]; FCS 1%): enhanced; also recorded: increased DNA synthesis | [3H]-leucine incorporation ([3]; concentration 1.0): 89 % control | [3H]-leucine incorporation ([3]; concentration 10.0): 100 % control

CC#C[C@]1(O)CC[C@H]2[C@@H]3CCC4=CC(=O)CCC4=C3[C@@H](c3ccc(N(C)C)cc3)C[C@@]21C [RU 486, reference compound]
shape changes in response to colchicine or 2-methoxyestradiol ([4]; RU 486 as antagonist): reduced the shape changes | effect on inhibition of DNA synthesis by 2-methoxyestradiol ([2]; RU 486 (1 μM), 2-methoxyestradiol 3 μM, FCS 1%): no effect

CCCCC[C@H](O)/C=C/[C@@H]1[C@@H](C/C=C\CCCC(=O)O)[C@H]2CO[C@@H]1C2 [U46619]
mitogenic activity on airway smooth muscle [5]: only weakly active

COc1cc2c(c(OC)c1OC)-c1ccc(OC)c(=O)cc1[C@@H](NC(C)=O)CC2 [colchicine, reference compound]
shape changes ([4]; colchicine 0.1-10 μM): similar

C[C@@H]1C[C@H]2[C@@H]3CCC4=CC(=O)C=C[C@]4(C)[C@@]3(F)[C@@H](O)C[C@]2(C)[C@@]1(O)C(=O)CO [dexamethasone]
effect on proliferation of cultured airway smooth muscle [5]: anti-proliferative effect

NCCc1c[nH]cn1 [histamine]
mitogenic activity on airway smooth muscle [5]: completely inactive

EGF: epidermal growth factor
DNA synthesis ([3H]-thymidine incorporation) over unstimulated ([2]; 3 nM EGF, fold series): 4.5±0.7 | mitogenic activity on airway smooth muscle [5]: most effective proliferative agents

bFGF: human recombinant basic FGF
DNA synthesis ([3H]-thymidine incorporation) over unstimulated ([2]; 300 pM bFGF, fold series): 22.5±5.3 | mitogenic activity on airway smooth muscle [5]: most effective proliferative agents

endothelin-1
mitogenic activity on airway smooth muscle [5]: only weakly active

heparin [reference compound]
proliferation of endothelial cells and fibroblasts [6]: enhance endothelial cell proliferation | effect on proliferation of cultured airway smooth muscle [5]: inhibit proliferation of airway smooth muscle cells

thrombin: thrombin (bovine plasma), mitogen
DNA synthesis ([3H]-thymidine incorporation) over unstimulated ([2]; 0.3 U/ml thrombin): 8.4±3.1 fold | mitogenic activity on airway smooth muscle [5]: effective growth factor
